Positions of bridges follow the written chain, without caps; N, C: chain ends. Non-standard residues stand in square brackets, D forms with d. Residues, ends and D or L forms follow the SMILES beside them. Groups on a side chain read outwards from the residue. *: point of attachment. X2 = C[N+](C)(CCNC(=O)CCCCCCCCCCCCCCCCC(=O)O)CC(=O)NCC[N+](C)(C)CC(=O)*; X1 = C[N+](C)(CCNC(=O)CCCCCCCCCCCCCCCCC(=O)O)CC(=O)*; X5 = CCCCCCCCCCCCCCCC(=O)NCC[N+](C)(C)CC(=O)*; C18 diacid = O=C(O)CCCCCCCCCCCCCCCCC(=O)*; Dip = N[C@H](C(=O)O)C(c1ccccc1)c1ccccc1; Pro(3S-OH) = O=C(O)[C@H]1NCC[C@@H]1O; Pro(3R-OH) = O=C(O)[C@H]1NCC[C@H]1O; Palmitoyl = CCCCCCCCCCCCCCCC(=O)*; NMeT = CN[C@H](C(=O)O)[C@@H](C)O; NMeE = CN[C@@H](CCC(=O)O)C(=O)O; NMeQ = CN[C@@H](CCC(N)=O)C(=O)O; β3hF = N[C@H](CC(=O)O)Cc1ccccc1; NMeK = CN[C@@H](CCCCN)C(=O)O; Tle = CC(C)(C)[C@H](N)C(=O)O; Isovaleryl = CC(C)CC(=O)*; Dap = NC[C@H](N)C(=O)O; AEEA = NCCOCCOCC(=O)O; Ahx = NCCCCCC(=O)O

As a reminder, the IC50 is the point on the concentration scale where inhibition reaches its midpoint.

One test has as its target T1, ferroportin (Homo sapiens, UniProt Q9NP59).
T1 sequence (Q9NP59 1-571): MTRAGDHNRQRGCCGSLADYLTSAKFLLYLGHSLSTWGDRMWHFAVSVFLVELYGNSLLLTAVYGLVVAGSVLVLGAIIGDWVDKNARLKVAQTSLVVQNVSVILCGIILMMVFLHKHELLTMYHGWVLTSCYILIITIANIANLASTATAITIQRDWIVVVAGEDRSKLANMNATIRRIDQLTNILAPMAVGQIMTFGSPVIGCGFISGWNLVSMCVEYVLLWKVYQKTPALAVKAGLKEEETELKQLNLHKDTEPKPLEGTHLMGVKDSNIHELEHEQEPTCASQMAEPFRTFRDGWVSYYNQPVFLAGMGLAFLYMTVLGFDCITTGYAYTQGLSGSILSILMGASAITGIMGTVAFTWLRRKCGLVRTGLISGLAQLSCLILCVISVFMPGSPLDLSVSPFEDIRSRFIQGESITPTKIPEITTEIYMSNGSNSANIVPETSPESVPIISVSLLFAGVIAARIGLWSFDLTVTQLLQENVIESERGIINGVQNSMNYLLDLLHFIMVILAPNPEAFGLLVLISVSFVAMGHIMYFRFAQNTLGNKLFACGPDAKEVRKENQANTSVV
Put plainly: T47D cell-based ferroportin internalization assay in presence of mouse serum albumin (MSA). Set-up: a human breast carcinoma adherent cell line which endogenously expresses ferroportin; host or cells: T47D. The conditions noted are these: T47D internalization assay in presence of mouse serum albumin (MSA); Table 6E. As for the experimental part:
The potency of the peptides in causing ferroportin internalization was evaluated in a T47D cell-based assay. […] In this internalization assay, the potency of the test peptides was evaluated in presence of serum albumin which is the main protein component in the blood. T47D cells were maintained in RPMI media (containing required amount of fetal bovine serum) and regularly sub-cultured. In preparation for the assay, the cells were seeded in 96-well plates at a density of 80-100 k cells per well in 100 ul volume and allowed to rest overnight. […] Sigma, A3139). The test peptide dilution series were allowed to incubate at room temperature for 30 min. Then the media was aspirated from the 96-well cell plate and test peptide dilution series were added. […] The AF647-conjugated detection peptide was previously verified to bind to ferroportin and cause its internalization. The cells were washed again after a 2 hr incubation in preparation for flow cytometry analysis. The Median Fluorescence Intensity (MFI) of the AF647-positive population was measured (after removing dead cells and non-singlets from the analysis). The MFI values were used to generate a dose-response curve and obtain IC50 potencies for the test peptides.
Consider `CC(C)CC(=O)N[C@@H](CCC(=O)O)C(=O)N[C@H](C(=O)N[C@@H](Cc1c[nH]cn1)C(=O)N[C@H](C(=O)N1CCC[C@H]1C(=O)N[C@H]1CSSC[C@@H](C(=O)N(C)[C@@H](CCCCNC(=O)COCCOCCNC(=O)COCCOCCNC(=O)[C@H](CN)NC(=O)CCCCCCCCCCCCCCCCC(=O)O)C(=O)N[C@H](CC(=O)N[C@H](CCCCN)C(=O)N(C)[C@@H](CCC(N)=O)C(N)=O)Cc2ccccc2)NC1=O)C(c1ccccc1)c1ccccc1)[C@@H](C)O` [compound 251] (Isovaleryl-ETH[Dip]PCC[NMeK]([AEEA-AEEA-Dap-C18 diacid])[β3hF][dK][NMeQ]-NH2; disulfide 6-7), for which the half-maximal inhibitory concentration (IC50) was in the range of 10 to 100 nM.
The same measure, in the same setting: in the case of `CC(C)CC(=O)N[C@@H](CCC(=O)O)C(=O)N1CC[C@H](O)[C@H]1C(=O)N[C@@H](Cc1c[nH]cn1)C(=O)N[C@H](C(=O)N1CCC[C@H]1C(=O)N[C@H]1CSSC[C@@H](C(=O)N(C)[C@@H](CCCCNC(=O)COCCOCCNC(=O)COCCOCCNC(=O)[C@H](CN)NC(=O)CCCCCCCCCCCCCCCCC(=O)O)C(=O)N[C@H](CC(=O)N[C@H](CCCCN)C(N)=O)Cc2ccccc2)NC1=O)C(c1ccccc1)c1ccccc1` [compound 253] (Isovaleryl-E[Pro(3S-OH)]H[Dip]PCC[NMeK]([AEEA-AEEA-Dap-C18 diacid])[β3hF][dK]-NH2; disulfide 6-7) it was 10 to 100 nM.
The same measure, in the same setting: in the case of `COC(=O)CC[C@H](NC(=O)CC(C)C)C(=O)N[C@H](C(=O)N[C@@H](Cc1c[nH]cn1)C(=O)N[C@H](C(=O)N1CCC[C@H]1C(=O)N[C@H]1CSSC[C@@H](C(=O)N(C)[C@@H](CCCCNC(=O)COCCOCCNC(=O)COCCOCCNC(=O)C[N+](C)(C)CCNC(=O)CCCCCCCCCCCCCCCCC(=O)O)C(=O)N[C@H](C(=O)N[C@H](CCCCN)C(N)=O)C(c2ccccc2)c2ccccc2)NC1=O)C(c1ccccc1)c1ccccc1)[C@@H](C)O` [compound 230] (Isovaleryl-E(OMe)TH[Dip]PCC[NMeK]([AEEA-AEEA-X1])[Dip][dK]-NH2; disulfide 6-7) it was 10 to 100 nM.
For the molecule `COC(=O)CC[C@H](NC(=O)CC(C)C)C(=O)N[C@H](C(=O)N[C@@H](Cc1c[nH]cn1)C(=O)N[C@H](C(=O)N1CCC[C@H]1C(=O)N[C@H]1CSSC[C@@H](C(=O)N(C)[C@@H](CCCCNC(=O)COCCOCCNC(=O)COCCOCCNC(=O)C[N+](C)(C)CCNC(=O)CCCCCCCCCCCCCCCCC(=O)O)C(=O)N[C@H](CC(=O)N[C@H](CCCCN)C(N)=O)Cc2ccccc2)NC1=O)C(c1ccccc1)c1ccccc1)[C@@H](C)O` [compound 231] (Isovaleryl-E(OMe)TH[Dip]PCC[NMeK]([AEEA-AEEA-X1])[β3hF][dK]-NH2; disulfide 6-7), the IC50 was in the range of 10 to 100 nM.
On the same count and under the same terms, next, `CC(C)CC(=O)N[C@@H](CN)C(=O)N[C@H](C(=O)N[C@@H](Cc1c[nH]cn1)C(=O)N[C@H](C(=O)N1CCC[C@H]1C(=O)N[C@H]1CSSC[C@@H](C(=O)N(C)[C@@H](CCCCNC(=O)COCCOCCNC(=O)COCCOCCNC(=O)[C@H](CN)NC(=O)CCCCCCCCCCCCCCCCC(=O)O)C(=O)N[C@H](CC(=O)N[C@H](CCCCN)C(N)=O)Cc2ccccc2)NC1=O)C(c1ccccc1)c1ccccc1)[C@@H](C)O` [compound 289] (Isovaleryl-[Dap]TH[Dip]PCC[NMeK]([AEEA-AEEA-Dap-C18 diacid])[β3hF][dK]-NH2; disulfide 6-7): 100 to 500 nM.
On the same count and under the same terms, next, `COC(=O)CC[C@H](NC(=O)CC(C)C)C(=O)N[C@H](C(=O)N[C@@H](Cc1c[nH]cn1)C(=O)N[C@H](C(=O)N1CCC[C@H]1C(=O)N[C@H]1CSSC[C@@H](C(=O)N[C@@H](CCCCNC(=O)CCCCCNC(=O)C[N+](C)(C)CCNC(=O)CCCCCCCCCCCCCCCCC(=O)O)C(=O)N[C@H](CC(=O)N[C@H](CCCCN)C(N)=O)Cc2ccccc2)NC1=O)C(c1ccccc1)c1ccccc1)[C@@H](C)O` [compound 315] (Isovaleryl-E(OMe)TH[Dip]PCCK([Ahx-X1])[β3hF][dK]-NH2; disulfide 6-7): 10 to 100 nM.

Staying with this test, now noted: Table 6E; T47D internalization assay with MSA.
As for `COC(=O)CC[C@H](NC(=O)CC(C)C)C(=O)N[C@H](C(=O)N[C@@H](Cc1c[nH]cn1)C(=O)N[C@H](C(=O)N1CCC[C@H]1C(=O)N[C@H]1CSSC[C@@H](C(=O)N[C@H](CCCCNC(=O)CCCCCNC(=O)C[N+](C)(C)CCNC(=O)CCCCCCCCCCCCCCCCC(=O)O)C(=O)N[C@H](C(=O)N[C@H](C(N)=O)C(C)(C)C)C(c2ccccc2)c2ccccc2)NC1=O)C(c1ccccc1)c1ccccc1)[C@@H](C)O` [compound 212] (Isovaleryl-E(OMe)TH[Dip]PCC[dK]([Ahx-X1])[Dip][Tle]-NH2; disulfide 6-7), the IC50 lay within 10 to 100 nM.
Turning to `CC(C)CC(=O)NC(CCC(=O)O)C(=O)NC(C(=O)NC(Cc1cnc[nH]1)C(=O)NC(C(=O)N1CCCC1C(=O)NC1CSCc2ccc(cc2)CSCC(C(=O)N(C)C(CCCCNC(=O)COCCOCCNC(=O)COCCOCCNC(=O)C(CN)NC(=O)CCCCCCCCCCCCCCCCC(=O)O)C(=O)NC(CC(=O)NC(CCCCN)C(N)=O)Cc2ccccc2)NC1=O)C(c1ccccc1)c1ccccc1)C(C)O` (centres unmarked) [compound 218], the IC50 was 10 to 100 nM.
Take `CC(C)CC(=O)N[C@H]1CCC(=O)NCCCC[C@H](C(N)=O)NC(=O)[C@H](C(c2ccccc2)c2ccccc2)NC(=O)[C@H](CCCCNC(=O)CCCCCNC(=O)C[N+](C)(C)CCNC(=O)CCCCCCCCCCCCCCCCC(=O)O)N(C)C(=O)[C@@H]2CSSC[C@H](NC(=O)[C@@H]3CCCN3C(=O)[C@H](C(c3ccccc3)c3ccccc3)NC(=O)[C@H](Cc3cnc[nH]3)NC(=O)[C@H]([C@@H](C)O)NC1=O)C(=O)N2` [compound 193] (Isovaleryl-ETH[Dip]PCC[NMeK]([Ahx-X1])[Dip][dK]-NH2; lactam 1-10; disulfide 6-7): the IC50 is 10 to 100 nM.
Same read-out and setting: in the case of `COC(=O)CC[C@H](NC(=O)CC(C)C)C(=O)N[C@H](C(=O)N[C@@H](Cc1c[nH]cn1)C(=O)N[C@H](C(=O)N1CCC[C@H]1C(=O)N[C@H]1CSSC[C@@H](C(=O)N[C@@H](CCCCNC(=O)C[N+](C)(C)CCNC(=O)C[N+](C)(C)CCNC(=O)CCCCCCCCCCCCCCCCC(=O)O)C(=O)N[C@H](C(=O)N[C@H](CCCCN)C(N)=O)C(c2ccccc2)c2ccccc2)NC1=O)C(c1ccccc1)c1ccccc1)[C@@H](C)O` [compound 209] (Isovaleryl-E(OMe)TH[Dip]PCCK(X2)[Dip][dK]-NH2; disulfide 6-7) it was 10 to 100 nM; in that of `CCCCCCCCCCCCCCCC(=O)NCC[N+](C)(C)CC(=O)NCCCCCC(=O)NCCCC[C@@H](C(=O)N[C@H](C(=O)N[C@H](CCCCN)C(N)=O)C(c1ccccc1)c1ccccc1)N(C)C(=O)[C@@H]1CSSC[C@H](NC(=O)[C@@H]2CCCN2C(=O)[C@@H](NC(=O)[C@H](Cc2cnc[nH]2)NC(=O)[C@H]([C@@H](C)O)N(C)C(=O)[C@H](CCC(=O)O)NC(=O)CC(C)C)C(c2ccccc2)c2ccccc2)C(=O)N1` [compound 170] (Isovaleryl-E[NMeT]H[Dip]PCC[NMeK]([Ahx-X5])[Dip][dK]-NH2; disulfide 6-7), 1 to 10 nM.
For the molecule `CCCCCCCCCCCCCCCC(=O)NCCCCCC(=O)NCCCC[C@@H](C(=O)N[C@H](C(=O)N[C@H](CCCCN)C(N)=O)C(c1ccccc1)c1ccccc1)N(C)C(=O)[C@@H]1CSSC[C@H](NC(=O)[C@@H]2CCCN2C(=O)[C@@H](NC(=O)[C@H](Cc2cnc[nH]2)NC(=O)[C@@H](NC(=O)[C@H](CCC(=O)O)N(C)C(=O)CC(C)C)[C@@H](C)O)C(c2ccccc2)c2ccccc2)C(=O)N1` [compound 166] (Isovaleryl-[NMeE]TH[Dip]PCC[NMeK]([Ahx-Palmitoyl])[Dip][dK]-NH2; disulfide 6-7), the IC50 is 1 to 10 nM.
On the same count and under the same terms, in the case of `CCCCCCCCCCCCCCCC(=O)NCC[N+](C)(C)CC(=O)NCCCC[C@@H](C(=O)N[C@H](C(=O)N[C@H](CCCCN)C(N)=O)C(c1ccccc1)c1ccccc1)N(C)C(=O)[C@@H]1CSSC[C@H](NC(=O)[C@@H]2CCCN2C(=O)[C@@H](NC(=O)[C@H](Cc2c[nH]cn2)NC(=O)[C@@H]2[C@H](O)CCN2C(=O)[C@H](CCC(=O)OC)NC(=O)CC(C)C)C(c2ccccc2)c2ccccc2)C(=O)N1` [compound 151] (Isovaleryl-E(OMe)[Pro(3R-OH)]H[Dip]PCC[NMeK](X5)[Dip][dK]-NH2; disulfide 6-7) it was 1 to 10 nM; in that of `COC(=O)CC[C@H](NC(=O)CC(C)C)C(=O)N[C@H](C(=O)N[C@@H](Cc1c[nH]cn1)C(=O)N[C@H](C(=O)N1CCC[C@H]1C(=O)N[C@H]1CSSC[C@@H](C(=O)N[C@H](CCCCNC(=O)CCCCCNC(=O)C[N+](C)(C)CCNC(=O)CCCCCCCCCCCCCCCCC(=O)O)C(=O)N[C@H](CC(=O)N[C@H](CCCCN)C(N)=O)Cc2ccccc2)NC1=O)C(c1ccccc1)c1ccccc1)[C@@H](C)O` [compound 213] (Isovaleryl-E(OMe)TH[Dip]PCC[dK]([Ahx-X1])[β3hF][dK]-NH2; disulfide 6-7), 10 to 100 nM.

Values taken from patent US20250277012A1 (Protagonist Therapeutics, Inc., priority 2021, published 2025).
